Laboratory results from patent US9045442B2, “Antibacterial compounds and methods of using same” (University of Notre Dame du Lac, priority 2007, dated 2015).

How the values were obtained:
[1] = test system: E. faecium 106; test: minimum inhibitory concentration (MIC) against E. faecium 106; format: cell-based
From the text: (§1) In embodiments, the antibacterials of this invention may have useful activity against a variety of organisms. The in vitro activity of compounds of this invention may be assessed by standard testing procedures such as the determination of minimum inhibitory concentration (MIC) by agar dilution.
(§2) Compound A was broken down into smaller structural components and each fraction tested to understand the impact of certain components on the antibacterial properties of the compounds. Based on the understanding of compound A, the compounds (compounds 1 and 2) shown below, were tested further. […] A minimum inhibitory concentration is the lowest concentration of an antimicrobial that will inhibit the visible growth of a microorganism after overnight incubation.
(§3) In accordance with embodiments of the present invention, a variety of compounds have been prepared and tested, as indicated, in part, by the description above. The tables below provide minimum inhibitory concentration data for the identified compounds tested against various bacterial strains.

[2] = test system: S. aureus VAN2; test: minimum inhibitory concentration (MIC) against S. aureus VAN2; format: cell-based, Staphylococcus aureus
From the text: as §1, §2, §3

[3] = test system: several strains of Staphylococcus aureus; test: activity (minimum inhibitory concentration testing) against several strains of Staphylococcus aureus; format: cell-based; conditions: FIG. 1, result in words
Method: as §2

[4] = test system: S. aureus VAN1; test: minimum inhibitory concentration (MIC) against S. aureus VAN1; format: cell-based, Staphylococcus aureus
From the text: as §1, §2, §3

[5] = test system: E. faecalis 29212; test: minimum inhibitory concentration (MIC) against E. faecalis 29212; format: cell-based; parameters: minimum inhibitory concentration, E. faecalis 29212: unit not given here
From the text: as §1, §2, §3
(§4) Table 1 lists the active compounds and the activity of those compounds for a limited quantity of bacteria. Blank spaces indicate low or no activity.

[6] = test system: E. faecal 201; test: minimum inhibitory concentration (MIC) against E. faecal 201; format: cell-based, E. faecalis
From the text: as §1, §2, §3, §4

[7] = test system: S. aureus NRS100 (COL); test: minimum inhibitory concentration (MIC) against S. aureus NRS100 (COL); format: cell-based, Staphylococcus aureus
From the text: as §1, §2, §3

[8] = test system: E. faecalis 99; test: minimum inhibitory concentration (MIC) against E. faecalis 99; format: cell-based
From the text: as §1, §2, §3, §4

[9] = test system: strains of Entercoccus; test: activity (minimum inhibitory concentration testing) against strains of Entercoccus; format: cell-based; conditions: result in words; for activity as measured by minimum inhibitory concentration testing against several strains of Entercoccus: FIG. 1
Method: (§5) In an embodiment, an initial antibacterial compound was provided and tested. Such compound is identified below as compound A. Compound A (below) is an inhibitor of gram positive bacteria.
as §2

[10] = test system: S. aureus ATCC 29213; test: minimum inhibitory concentration (MIC) against S. aureus ATCC 29213; format: cell-based, Staphylococcus aureus
From the text: as §1, §2, §3, §4

[11] = test system: E. faecium 119-39A; test: minimum inhibitory concentration (MIC) against E. faecium 119-39A; format: cell-based
From the text: as §1, §2, §3

[12] = test system: gram positive bacteria; test: inhibition of gram positive bacteria; format: cell-based; conditions: result in words
From the text: as §5

SMILES | minimum inhibitory concentration, E. faecalis 29212 [5] | minimum inhibitory concentration, E. faecal 201 [6] | further results
Oc1ccc(-c2nc(-c3ccc(Oc4ccc(C(F)(F)F)cc4)cc3)no2)cc1 [Compound 1, 4-(3-(4-(4-(trifluoromethyl)phenoxy)phenyl)-1,2,4-oxadiazol-5-yl)phenol] | 2 | 2 | minimum inhibitory concentration, E. faecium 106 [1]: 2; minimum inhibitory concentration, E. faecium 106 BH ([1]; E. faecium 106 BH): 4; minimum inhibitory concentration, S. aureus VAN2 [2]: 2; activity as measured by minimum inhibitory concentration testing against several strains of Staphylococcus aureus [3]: good activity; minimum inhibitory concentration, S. aureus VAN1 [4]: 2; minimum inhibitory concentration, E. faecalis 29212 BH [5]: 16; minimum inhibitory concentration, E. faecal 201 BH [6]: 16; minimum inhibitory concentration, S. aureus NRS100 (COL) [7]: 2; minimum inhibitory concentration, E. faecal 99 BH [8]: 8; minimum inhibitory concentration, E. faecalis 99 [8]: 2; activity as measured by minimum inhibitory concentration testing against several strains of Entercoccus [9]: good activity; minimum inhibitory concentration, S. aureus ATCC 29213 [10]: 2; minimum inhibitory concentration, E. faecium 119-39A [11]: 2; minimum inhibitory concentration, E. faecium 119-39A BH ([11]; E. faecium 119-39A BH): 8
Oc1ccc(-c2nc(-c3ccc(Oc4ccccc4)cc3)no2)cc1 [Compound 2, 4-(3-(4-phenoxyphenyl)-1,2,4-oxadiazol-5-yl)phenol] | 4 | 4 | minimum inhibitory concentration, E. faecium 106 [1]: 4; minimum inhibitory concentration, S. aureus VAN2 [2]: 2; activity as measured by minimum inhibitory concentration testing against several strains of Staphylococcus aureus [3]: good activity; minimum inhibitory concentration, S. aureus VAN1 [4]: 2; minimum inhibitory concentration, S. aureus NRS100 (COL) [7]: 2; minimum inhibitory concentration, E. faecalis 99 [8]: 4; activity as measured by minimum inhibitory concentration testing against several strains of Entercoccus [9]: good activity; minimum inhibitory concentration, S. aureus ATCC 29213 [10]: 2; minimum inhibitory concentration, E. faecium 119-39A [11]: 4
CC(=O)O/N=C(\N)c1ccc(Oc2ccc(C(F)(F)F)cc2)cc1 [Compound 7] | 32 | 128 | minimum inhibitory concentration, E. faecal 99 BH [8]: 512
N/C(=N\OC(=O)c1ccc([N+](=O)[O-])cc1)c1ccc(Oc2ccc(C(F)(F)F)cc2)cc1 [Compound 14, (Z)-4-(4-(trifluoromethyl)phenoxy)-O-(4-nitrobenzoyl)benzamidoxime] | 128 | 32 | –
O=[N+]([O-])c1ccc(-c2nc(-c3ccc(Oc4ccc(C(F)(F)F)cc4)cc3)no2)cc1 [Compound 15] | 8 | 128 | –
Fc1ccc(-c2nc(-c3ccccc3)no2)cc1 [Compound 19, 5-(4-fluorophenyl)-3-phenyl-1,2,4-oxadiazole] | 64 | 128 | –
COc1ccc(/C(N)=N/OC(=O)c2ccc(F)cc2)cc1 [Compound 25, 4-fluorobenzoyl-O-4-methoxybenzamidoxime] | 256 | 256 | –
COc1ccc(-c2noc(-c3ccc(F)cc3)n2)cc1 [Compound 26, 5-(4-fluorophenyl)-3-(4-methoxyphenyl)-1,2,4-oxadiazole] | 64 | 128 | –
COc1ccc(-c2noc(-c3ccc(OCc4ccccc4)cc3)n2)cc1 [Compound 27, 5-(4-(benzyloxy)phenyl)-3-(4-methoxyphenyl)-1,2,4-oxadiazole] | – | 256 | –
COc1ccc(-c2noc(-c3ccc(O)cc3)n2)cc1 [Compound 28, 4-(3-(4-methoxyphenyl)-1,2,4-oxadiazol-5-yl)phenol] | – | 64 | minimum inhibitory concentration, S. aureus ATCC 29213 [10]: 32
N/C(=N\OC(=O)c1ccc(F)cc1)c1ccc(Oc2ccccc2)cc1 [Compound 29, (Z)-4-(phenoxy)-O-(4-fluorobenzoyl)benzamidoxime] | 64 | 128 | –
Oc1ccc(Oc2ccc(-c3noc(-c4ccc(F)cc4)n3)cc2)cc1 [Compound 36, 4-(4-(5-(4-fluorophenyl)-1,2,4-oxadiazol-3-yl)phenoxy)phenol] | 64 | 32 | –
O=P(O)(O)Oc1ccc(Oc2ccc(-c3noc(-c4ccc(F)cc4)n3)cc2)cc1 [Compound 37, 4-(4-(5-(4-fluorophenyl)-1,2,4-oxadiazol-3-yl)phenoxy)phenyl dihydrogen phosphate] | 500 | 32 | minimum inhibitory concentration, E. faecalis 29212 BH [5]: 128; minimum inhibitory concentration, E. faecal 201 BH [6]: 500; minimum inhibitory concentration, E. faecal 99 BH [8]: 500
c1ccc(COc2ccc(-c3nc(-c4ccc(Oc5cnccn5)cc4)no3)cc2)cc1 [Compound 40, 2-(4-(5-(4-(benzyloxy)phenyl)-1,2,4-oxadiazol-3-yl)phenoxy)pyrazine] | – | 64 | –
c1ccc(COc2ccc(-c3nc(-c4ccc(Oc5ccccn5)cc4)no3)cc2)cc1 [Compound 43, 2-(4-(5-(4-(benzyloxy)phenyl)-1,2,4-oxadiazol-3-yl)phenoxy)pyridine] | – | 64 | –
Oc1ccc(-c2nc(-c3ccc(Oc4ccccn4)cc3)no2)cc1 [Compound 44, 4-(3-(4-(pyridin-2-yloxy)phenyl)-1,2,4-oxadiazol-5-yl)phenol] | – | 32 | –
c1ccc(COc2ccc(-c3nc(-c4ccc(Oc5cccnc5)cc4)no3)cc2)cc1 [Compound 47, 3-(4-(5-(4-(benzyloxy)phenyl)-1,2,4-oxadiazol-3-yl)phenoxy)pyridine] | – | 32 | –
Oc1ccc(-c2nc(-c3ccc(Oc4cccnc4)cc3)no2)cc1 [Compound 48, 4-(3-(4-(pyridin-3-yloxy)phenyl)-1,2,4-oxadiazol-5-yl)phenol] | – | 32 | –
c1ccc(COc2ccc(-c3nc(-c4ccc(Oc5ccncc5)cc4)no3)cc2)cc1 [Compound 51, 4-(4-(5-(4-(benzyloxy)phenyl)-1,2,4-oxadiazol-3-yl)phenoxy)pyridine] | – | 64 | –
Oc1ccc(-c2nc(-c3ccc(Oc4ccncc4)cc3)no2)cc1 [Compound 52, 4-(3-(4-(pyridin-4-yloxy)phenyl)-1,2,4-oxadiazol-5-yl)phenol] | – | 32 | –
Fc1ccc(-c2nc(-c3ccc(Oc4ccc(C(F)(F)F)cc4)cc3)no2)cc1 [Compound A, 5-(4-fluorophenyl)-3-(4-(4-(trifluoromethyl)phenoxy)phenyl)-1,2,4-oxadiazole] | 125 | 128 | inhibition of gram positive bacteria [12]: inhibitor; activity against some strains of Entercoccus ([9]; some strains of Entercoccus): shows activity
